Laboratory results: publication PMC10179503, “Using Machine Learning and Molecular Docking to Leverage Urease Inhibition Data for Virtual Screening” (International Journal of Molecular Sciences, 2023)

Each molecule was assayed against T1, jack bean urease (Canavalia ensiformis, UniProt P07374) (assay: indophenol (Weatherburn) ammonia release, […] nm). Conditions: read-out: % at 1 mM or IC50 ± SEM.
T1 construct: nickel metalloenzyme; full length 840 residues, native oligomer a hexamer (known biology)
T1 sequence (P07374 whole entry): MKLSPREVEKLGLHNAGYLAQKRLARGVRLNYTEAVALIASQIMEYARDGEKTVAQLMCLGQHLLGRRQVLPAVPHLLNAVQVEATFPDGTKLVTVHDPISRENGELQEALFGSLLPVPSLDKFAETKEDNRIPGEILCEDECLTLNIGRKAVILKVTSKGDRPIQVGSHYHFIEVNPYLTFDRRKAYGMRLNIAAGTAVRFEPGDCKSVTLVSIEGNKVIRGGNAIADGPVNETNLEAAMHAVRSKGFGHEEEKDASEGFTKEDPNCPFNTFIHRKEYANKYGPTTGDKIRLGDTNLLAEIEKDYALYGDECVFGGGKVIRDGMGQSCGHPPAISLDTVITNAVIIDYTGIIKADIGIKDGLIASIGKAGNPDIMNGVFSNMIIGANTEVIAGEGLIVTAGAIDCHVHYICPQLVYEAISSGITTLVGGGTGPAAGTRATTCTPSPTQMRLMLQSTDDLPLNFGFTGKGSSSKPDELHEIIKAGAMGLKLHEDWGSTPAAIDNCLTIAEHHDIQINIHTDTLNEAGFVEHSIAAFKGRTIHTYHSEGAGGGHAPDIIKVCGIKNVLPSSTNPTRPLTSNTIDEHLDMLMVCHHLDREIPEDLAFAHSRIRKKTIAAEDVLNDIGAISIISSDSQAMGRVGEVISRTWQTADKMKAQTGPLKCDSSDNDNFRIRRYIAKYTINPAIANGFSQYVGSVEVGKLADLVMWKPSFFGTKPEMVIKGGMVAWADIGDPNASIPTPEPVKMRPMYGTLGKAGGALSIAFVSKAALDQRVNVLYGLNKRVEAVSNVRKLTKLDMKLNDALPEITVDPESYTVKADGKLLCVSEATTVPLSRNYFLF
Format: biochemical

Going from `[O-][S+](NOCc1ccccc1)c1ccccc1` (stereo not drawn) [compound 3, 3] to `O=S(=O)(NOCc1ccccc1)c1ccccc1` [compound 2, 2], the IC50 rises from 6.15 ± 0.99 µM to 100 ± 10.2 µM (16-fold).

`NC(N)=S` [Thiourea, reference compound] and `NOC(=O)c1ccccc1` [compound 5, 5] are within 1.5-fold of each other in IC50: 144 ± 5.08 µM for the first, 155 ± 2.02 µM for the second.

These molecules were tested against T1, jack bean urease (assay: indophenol (Weatherburn) ammonia release, […] nm). Conditions: urea (20 mM stock, 45 μL), PBS, 30 °C, 10 min.
Format: biochemical

Going from `Cc1ccc(S(=O)(=O)NOCc2ccccc2)cc1` [compound 1, 1] to `O=C(ON[S+]([O-])c1ccccc1)c1ccccc1` (stereo not drawn) [compound 4, 4], the “% at 1 mM or IC50 ± SEM (μM)” value falls from 43.85% to 0%.
